Experimental data published in ChEMBL document CHEMBL5537210, “Probing Isosteric Replacement for Immunoadjuvant Design: Bis-Aryl Triazole Trehalolipids are Mincle Agonists” (ACS Med Chem Lett, 2024).
Calls of active or inactive are those of the source. The rule behind the calls is not given here.

Tests used:
Assay type in all cases: functional, cell-based
Details in all cases: dose 0.1-1 nmol
[1] = system: 2B4; assay: Induction of NFAT-GFP signal in mouse 2B4 reporter cells expressing mMincle + FcRgamma at 0.1 to 1 nmol incubated for 18 hrs by flow cytometry analysis
[2] = system: BMDM; assay: Induction of cytokine production in wild type C57BL/6 mouse BMDM cells assessed as IL-10 secretion at 0.1 to 1 nmol incubated for 24 hrs by ELISA method
[3] = system: BMDM; assay: Induction of cytokine production in wild type C57BL/6 mouse BMDM cells assessed as IL-1beta secretion at 0.1 to 1 nmol incubated for 24 hrs by ELISA method
[4] = system: BMDM; assay: Induction of cytokine production in wild type C57BL/6 mouse BMDM cells assessed as IL-6 secretion at 0.1 to 1 nmol incubated for 24 hrs by ELISA method

SMILES | Activity [1] | Activity [2] | Activity [3] | Activity [4]
O[C@@H]1[C@@H](O)[C@@H](O[C@H]2O[C@H](Cn3cc(-c4ccccc4)nn3)[C@@H](O)[C@H](O)[C@H]2O)O[C@H](Cn2cc(-c3ccccc3)nn2)[C@H]1O | inactive |  |  | 
CCCCCCCCOc1cc(OCCCCCCCC)cc(-c2cn(C[C@H]3O[C@H](O[C@H]4O[C@H](Cn5cc(-c6cc(OCCCCCCCC)cc(OCCCCCCCC)c6)nn5)[C@@H](O)[C@H](O)[C@H]4O)[C@H](O)[C@@H](O)[C@@H]3O)nn2)c1 | Active | Active | inactive | Active
CCCCCCCCOc1ccc(-c2cn(C[C@H]3O[C@H](O[C@H]4O[C@H](Cn5cc(-c6ccc(OCCCCCCCC)cc6OCCCCCCCC)nn5)[C@@H](O)[C@H](O)[C@H]4O)[C@H](O)[C@@H](O)[C@@H]3O)nn2)c(OCCCCCCCC)c1 | Active | Active | Active | Active
CCCCCCCCOc1ccccc1-c1cn(C[C@H]2O[C@H](O[C@H]3O[C@H](Cn4cc(-c5ccccc5OCCCCCCCC)nn4)[C@@H](O)[C@H](O)[C@H]3O)[C@H](O)[C@@H](O)[C@@H]2O)nn1 | Active |  |  | 
CCCCCCCCOc1ccc(-c2cn(C[C@H]3O[C@H](O[C@H]4O[C@H](Cn5cc(-c6ccc(OCCCCCCCC)c(OCCCCCCCC)c6)nn5)[C@@H](O)[C@H](O)[C@H]4O)[C@H](O)[C@@H](O)[C@@H]3O)nn2)cc1OCCCCCCCC | Active | inactive | inactive | inactive
CCCCCCCCOc1ccc(-c2cn(C[C@H]3O[C@H](O[C@H]4O[C@H](Cn5cc(-c6ccc(OCCCCCCCC)cc6)nn5)[C@@H](O)[C@H](O)[C@H]4O)[C@H](O)[C@@H](O)[C@@H]3O)nn2)cc1 | Active |  |  | 
CCCCCCCCOc1cccc(-c2cn(C[C@H]3O[C@H](O[C@H]4O[C@H](Cn5cc(-c6cccc(OCCCCCCCC)c6OCCCCCCCC)nn5)[C@@H](O)[C@H](O)[C@H]4O)[C@H](O)[C@@H](O)[C@@H]3O)nn2)c1OCCCCCCCC | Active | Active | Active | Active
